The values that follow come from ChEMBL document CHEMBL1201862, “PubChem BioAssay data set” (2004).

Test systems include OVCAR-3; M14; SK-MEL-5; MOLT-4; Malme-3M; RPMI-8226; NCI-H226; SK-MEL-28; IGROV-1; TK-10; NCI-H522; HCT-116; A549; 786-0; LOX IMVI; SF-539; HCT-15.
What all share (assay): growth of human tumour cells (NCI), 48 h

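Briefly, cells in 96-well plates were exposed to five compound concentrations for 48 h, and endpoints were estimated by linear interpolation. GI50: concentration for 50% inhibition of growth.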 Activity calls are given as the source filed them. No stated cut-off is given here; in the data, active = GI50 up to about 1.1 µM and inactive = higher.

As for `COc1ccc(/C=C2\CN(C)Cc3c2nc(N)nc3-c2ccc(OC)cc2)cc1`, the GI50 in the assay on OVCAR-3 was > 100 µM (inactive); in the assay on M14, 69.3 µM (inactive); in the assay with SK-MEL-5 it was 26.9 µM (inactive); with MOLT-4, 30.1 µM (inactive); in the assay on Malme-3M it was 34.4 µM (inactive); in the assay on RPMI-8226, 24.6 µM (inactive). In addition, the GI50 is > 100 µM (inactive) with NCI-H226; > 100 µM (inactive) with SK-MEL-28; > 100 µM (inactive) with IGROV-1; > 100 µM (inactive) with TK-10; 41.3 µM (inactive) with NCI-H522; > 100 µM (inactive) with HCT-116. Further, the GI50 was 48.4 µM (inactive) in the assay with A549, > 100 µM (inactive) with 786-0, 79.4 µM (inactive) with LOX IMVI and > 100 µM (inactive) in the assay with SF-539.
`NC1N=Nc2ccccc21` (stereo unspecified): the GI50 in the assay with OVCAR-3, with M14, in the assay on MOLT-4, with Malme-3M, with RPMI-8226 and in the assay with NCI-H226 was > 100 µM (inactive) each time. For the same compound, the GI50 is > 100 µM (inactive) with SK-MEL-28; > 100 µM (inactive) in the assay on IGROV-1; above 100 µM with HCT-15; > 100 µM (inactive) in the assay on TK-10; > 100 µM (inactive) in the assay on NCI-H522; > 100 µM (inactive) with HCT-116. In addition, the GI50 in the assay with A549, in the assay on 786-0, with LOX IMVI and in the assay on SF-539 was > 100 µM (inactive) each time.
Turning to `COC1OC(C)C(OC(=O)C(C)(C)C)C(OS(=O)(=O)c2ccc(C)cc2)C1OS(=O)(=O)c1ccc(C)cc1` (stereo unspecified), the GI50 in the assay with OVCAR-3, with M14, in the assay with SK-MEL-5, with MOLT-4, in the assay with Malme-3M and in the assay with RPMI-8226 was > 100 µM (inactive) throughout. For the same compound, the GI50 in the assay on NCI-H226 was > 100 µM (inactive); in the assay with SK-MEL-28, > 100 µM (inactive); with IGROV-1, > 100 µM (inactive); with HCT-15, above 100 µM; in the assay on NCI-H522 it was > 100 µM (inactive); in the assay with HCT-116 it was > 100 µM (inactive). Also, the GI50 with A549, with 786-0 and in the assay on SF-539 was > 100 µM (inactive) throughout.
In the case of `CCOC(=O)/N=C(\N)SCc1ccccc1`, the GI50 is > 100 µM (inactive) in the assay with M14; > 100 µM (inactive) in the assay with SK-MEL-5; 26.5 µM (inactive) in the assay with MOLT-4; > 100 µM (inactive) in the assay with Malme-3M; 34.3 µM (inactive) in the assay on RPMI-8226; 7.33 µM (inactive) in the assay with NCI-H226. Also, the GI50 in the assay on SK-MEL-28 was > 100 µM (inactive); in the assay with IGROV-1, > 100 µM (inactive); in the assay on HCT-15, above 100 µM; in the assay with TK-10, > 100 µM (inactive); in the assay with NCI-H522, > 100 µM (inactive); in the assay with HCT-116, > 100 µM (inactive). Further, the GI50 with A549 is > 100 µM (inactive); with 786-0, > 100 µM (inactive); in the assay with LOX IMVI, 43.9 µM (inactive); in the assay with SF-539, > 100 µM (inactive).
For the compound `COc1ccc(/C=C/c2cc(OC)c(O[Si](C)(C)C(C)(C)C)c(OC)c2)cc1`, the GI50 in the assay on OVCAR-3 was > 100 µM (inactive); with M14, > 100 µM (inactive); in the assay with SK-MEL-5 it was 54.1 µM (inactive); with MOLT-4 it was 63.4 µM (inactive); with Malme-3M, 24.2 µM (inactive); in the assay with RPMI-8226 it was 45 µM (inactive). Further, the GI50 was 30.3 µM (inactive) in the assay on NCI-H226; 6.24 µM (inactive) in the assay with SK-MEL-28; > 100 µM (inactive) in the assay on IGROV-1; above 100 µM with HCT-15; > 100 µM (inactive) with NCI-H522; 55.6 µM (inactive) with HCT-116. Moreover, the GI50 in the assay with A549, in the assay on 786-0 and in the assay with SF-539 was > 100 µM (inactive) in each case.
For `N#CCCN(c1ccc(/C=N/c2ccccc2)cc1)S(=O)(=O)c1ccccc1`, the GI50 was > 100 µM (inactive) with OVCAR-3; 8.93 µM (inactive) in the assay on M14; > 100 µM (inactive) in the assay with SK-MEL-5; > 100 µM (inactive) in the assay with MOLT-4; 41.4 µM (inactive) in the assay with Malme-3M; > 100 µM (inactive) in the assay on RPMI-8226. In addition, the GI50 with NCI-H226, in the assay on SK-MEL-28, in the assay with IGROV-1, in the assay with TK-10, in the assay on NCI-H522 and with HCT-116 was > 100 µM (inactive) throughout. Besides, the GI50 in the assay on A549, in the assay with 786-0 and in the assay on SF-539 was > 100 µM (inactive) throughout.
Turning to `CCCCNC(=NC#N)NCCCC`, the GI50 in the assay on OVCAR-3, in the assay on M14, in the assay with SK-MEL-5, in the assay on MOLT-4, in the assay on Malme-3M and with RPMI-8226 was > 100 µM (inactive) each time. Besides, the GI50 is > 100 µM (inactive) in the assay on NCI-H226; > 100 µM (inactive) with SK-MEL-28; > 100 µM (inactive) in the assay on IGROV-1; 62.4 µM in the assay with HCT-15; > 100 µM (inactive) with TK-10; > 100 µM (inactive) in the assay with NCI-H522. In addition, the GI50 in the assay with HCT-116 is > 100 µM (inactive); in the assay on A549 it was > 100 µM (inactive); with 786-0, 49.5 µM (inactive); with SF-539 it was > 100 µM (inactive).
As to `CC(=O)N/N=C1\CC(C)(C)C2CCC1C2` (stereo unspecified), the GI50 with OVCAR-3, in the assay with M14, in the assay on SK-MEL-5, in the assay with MOLT-4, in the assay on Malme-3M and in the assay with RPMI-8226 was > 100 µM (inactive) each time. Moreover, the GI50 is > 100 µM (inactive) in the assay on SK-MEL-28; > 100 µM (inactive) in the assay on IGROV-1; above 100 µM in the assay on HCT-15; > 100 µM (inactive) in the assay on TK-10; > 100 µM (inactive) in the assay on NCI-H522; > 100 µM (inactive) in the assay with HCT-116. Further, the GI50 with A549, in the assay with 786-0, in the assay on LOX IMVI and in the assay with SF-539 was > 100 µM (inactive) throughout.
Turning to `Cc1nn(-c2nc3ccccc3s2)c2c1C(=O)c1ccccc1-2`, the GI50 in the assay with OVCAR-3, in the assay with M14, in the assay with SK-MEL-5, in the assay on Malme-3M, with RPMI-8226 and in the assay on SK-MEL-28 was > 100 µM (inactive) in each case. For the same compound, the GI50 in the assay with IGROV-1 was > 100 µM (inactive); in the assay on HCT-15, above 100 µM; with TK-10 it was > 100 µM (inactive); in the assay on NCI-H522, > 100 µM (inactive); in the assay on HCT-116 it was > 100 µM (inactive); with A549, > 100 µM (inactive). The GI50 is 80.4 µM (inactive) in the assay on 786-0, > 100 µM (inactive) in the assay with LOX IMVI and > 100 µM (inactive) in the assay on SF-539.
For `CCCCCCCCCCCOC(=S)NC(C)C`, the GI50 in the assay on M14 is 23.2 µM (inactive); in the assay on SK-MEL-5 it was 17 µM (inactive); in the assay on MOLT-4 it was 16.7 µM (inactive); with Malme-3M it was 21.8 µM (inactive); with RPMI-8226 it was 14 µM (inactive); in the assay on SK-MEL-28 it was 20.7 µM (inactive). In addition, the GI50 in the assay on IGROV-1 is 20.6 µM (inactive); with HCT-15, 17.5 µM; in the assay on TK-10, 28.2 µM (inactive); in the assay with NCI-H522, 18.2 µM (inactive); in the assay on HCT-116, 17.5 µM (inactive); in the assay with A549, 21.4 µM (inactive). The GI50 in the assay on 786-0 is 19.1 µM (inactive); in the assay on LOX IMVI, 16.7 µM (inactive); in the assay on SF-539, 18.3 µM (inactive).
On to `O=[N+]([O-])c1ccc(C2CC(c3ccc(NCc4nc5ccccc5[nH]4)cc3)=NO2)cc1` (stereo unspecified), for which the GI50 was 3.56 µM (inactive) in the assay on OVCAR-3; 33.5 µM (inactive) in the assay on M14; 9.04 µM (inactive) in the assay with SK-MEL-5; 6.92 µM (inactive) in the assay on MOLT-4; 34.4 µM (inactive) in the assay with Malme-3M; 18.5 µM (inactive) with RPMI-8226. For the same compound, the GI50 with SK-MEL-28 is > 100 µM (inactive); in the assay on IGROV-1, 75.7 µM (inactive); in the assay on HCT-15, 30.7 µM; with TK-10, 89.3 µM (inactive); in the assay on NCI-H522, 27.9 µM (inactive); in the assay on HCT-116, 27.4 µM (inactive). Also, the GI50 in the assay on A549 was 98.2 µM (inactive); with 786-0, 39.6 µM (inactive); with LOX IMVI, 35.5 µM (inactive); in the assay with SF-539 it was > 100 µM (inactive).
As for `O=C(/C=N/c1ccccc1[S-])c1ccco1.O=C(/C=N/c1ccccc1[S-])c1ccco1.[Zn+2]`, the GI50 was 15.2 µM (inactive) with OVCAR-3; 6.53 µM (inactive) in the assay with M14; 16.9 µM (inactive) in the assay with SK-MEL-5; 5.2 µM (inactive) in the assay with MOLT-4; 10 µM (inactive) with Malme-3M; 10.7 µM (inactive) in the assay on SK-MEL-28. Further, the GI50 is 5.14 µM (inactive) with IGROV-1; 8.59 µM in the assay on HCT-15; 16.7 µM (inactive) with TK-10; 10 µM (inactive) in the assay on NCI-H522; 4.06 µM (inactive) in the assay with HCT-116; 3.98 µM (inactive) in the assay with A549. Further, the GI50 is 8.3 µM (inactive) with 786-0, 7.46 µM (inactive) in the assay with LOX IMVI and 13.3 µM (inactive) in the assay with SF-539.
Consider `COC1(C)CC2N(C(=O)c3ccccc3)N=C(c3ccccc3)CC2(C)O1` (stereo unspecified), for which the GI50 in the assay with OVCAR-3 was > 100 µM (inactive); with M14, > 100 µM (inactive); in the assay on SK-MEL-5, > 100 µM (inactive); with MOLT-4, 61.7 µM (inactive); with Malme-3M, > 100 µM (inactive); with RPMI-8226, 89.5 µM (inactive). The GI50 was > 100 µM (inactive) in the assay with NCI-H226; > 100 µM (inactive) in the assay on IGROV-1; above 100 µM with HCT-15; > 100 µM (inactive) in the assay with NCI-H522; > 100 µM (inactive) in the assay with HCT-116; > 100 µM (inactive) with A549. Also, the GI50 with 786-0, with LOX IMVI and with SF-539 was > 100 µM (inactive) each time.
